Source: ChEMBL document CHEMBL1255275, “Drug-regulated expression of Plasmodium falciparum P-glycoprotein homologue 1: a putative role for nuclear receptors” (Antimicrob Agents Chemother, 2008)
Calls of active or inactive are those of the source. The calls are words filed in the database; no cut-off is given here.

What was measured:
[1] = system: Plasmodium falciparum; assay: Increase in Pgh1 expression in chloroquine-sensitive Plasmodium falciparum K1AM by Western blot relative to untreated control; format: functional
[2] = system: Plasmodium falciparum; assay: Increase in PfCRT expression chloroquine-sensitive Plasmodium falciparum K1Hf by Western blot relative to untreated control; format: functional, organism-based
[3] = system: Plasmodium falciparum; assay: Increase in PfCRT expression in chloroquine-sensitive Plasmodium falciparum K1AM by Western blot relative to untreated control; format: functional, organism-based
[4] = system: Plasmodium falciparum; assay: Increase in PfCRT expression in chloroquine-resistant Plasmodium falciparum R1H6/2 by Western blot relative to untreated control; format: functional, organism-based
[5] = system: Plasmodium falciparum; assay: Increase in Pgh1 expression chloroquine-sensitive Plasmodium falciparum K1Hf by Western blot relative to untreated control; format: functional
[6] = system: Plasmodium falciparum; assay: Increase in Pgh1 expression in chloroquine-resistant Plasmodium falciparum R1H6/2 by Western blot relative to untreated control; format: functional

Question: Which “fold change (FC)” value [1] does the source give for `CCC1(c2ccccc2)C(=O)NC(=O)NC1=O` [PHENOBARBITAL] here?
Answer: 4.7

Question: And the Activity [2]?
Answer: inactive

Question: And the Activity [3]?
Answer: inactive

Question: And the Activity [4]?
Answer: inactive

Question: What about the “fold change (FC)” value [5] of the same compound?
Answer: 5.4

Question: And the “fold change (FC)” value [6]?
Answer: 6.4
